# How the values were obtained:
# nightshade = assay: Test E preemergence; format: in vivo, Solanum ptycanthum; details: for Nightshade plant response rating: scale 0 to 100 (0 no effect, 100 complete control); for Plant response rating, Nightshade: scale 0 to 100, 0 no effect, 100 complete control
# Method in brief: (§1)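 Compound in a non-phytotoxic solvent mixture with surfactant was applied preemergence to seeds in silt loam soil, or postemergence to plants 2 to 18 cm tall grown in peat-based potting medium. Plants were kept in a greenhouse for 14 to 21 days, then rated visually against untreated controls on a 0 (no effect) to 100 (complete control) scale.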
# large (Lg) crabgrass = assay: Test E preemergence; format: in vivo, Digitaria sanguinalis; details: for Crabgrass, Large plant response rating: scale 0 to 100 (0 no effect, 100 complete control); for Plant response rating, Crabgrass, Large: scale 0 to 100, 0 no effect, 100 complete control
# Method in brief: as §1
# fall panicum = assay: Test E preemergence; format: in vivo, Panicum dichotomiflorum; details: for Panicum, Fall plant response rating: scale 0 to 100 (0 no effect, 100 complete control); for Plant response rating, Panicum, Fall: scale 0 to 100, 0 no effect, 100 complete control
# Method in brief: as §1
# barnyardgrass [1] = assay: Test C flooded paddy test; format: in vivo, Echinochloa crus-galli; details: Flood, scale 0 to 100 (0 no effect, 100 complete control), 13 to 15 days
# Method in brief: (§2)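 Pots were flooded to 3 cm above the soil surface at treatment, compound applied directly to the paddy water, and that depth held throughout. Plants were kept in a greenhouse for 13 to 15 days, then visually rated against untreated controls.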
# soybean = assay: Test E preemergence; format: in vivo, Glycine max; details: for Soybean plant response rating: scale 0 to 100 (0 no effect, 100 complete control); for Plant response rating, Soybean: scale 0 to 100, 0 no effect, 100 complete control
# Method in brief: as §1
# waterhemp = assay: Test E preemergence; format: in vivo, Amaranthus rudis; details: for Waterhemp plant response rating: scale 0 to 100 (0 no effect, 100 complete control); for Plant response rating, Waterhemp: scale 0 to 100, 0 no effect, 100 complete control
# Method in brief: as §1
# field bindweed = assay: Test E preemergence; format: in vivo, Convolvulus arvensis; details: for Field Bindweed plant response rating: scale 0 to 100 (0 no effect, 100 complete control); for Plant response rating, Field Bindweed: scale 0 to 100, 0 no effect, 100 complete control
# Method in brief: as §1
# velvetleaf = assay: Test E preemergence; format: in vivo, Abutilon theophrasti; details: for Velvetleaf plant response rating: scale 0 to 100 (0 no effect, 100 complete control); for Plant response rating, Velvetleaf: scale 0 to 100, 0 no effect, 100 complete control
# Method in brief: as §1
# corn = assay: Test E preemergence; format: in vivo, Zea mays; details: for Corn plant response rating: scale 0 to 100 (0 no effect, 100 complete control); for Plant response rating, Corn: scale 0 to 100, 0 no effect, 100 complete control
# Method in brief: as §1
# barnyardgrass [2] = assay: Test E preemergence; format: in vivo, Echinochloa crus-galli; details: for Barnyardgrass plant response rating: scale 0 to 100 (0 no effect, 100 complete control); for Plant response rating, Barnyardgrass: scale 0 to 100, 0 no effect, 100 complete control
# Method in brief: as §1
# sedge, umbrella = assay: Test C flooded paddy test; format: in vivo, Cyperus difformis; details: Flood, scale 0 to 100 (0 no effect, 100 complete control), 13 to 15 days
# Method in brief: as §2
# giant foxtail = assay: Test E preemergence; format: in vivo, Setaria faberii; details: for Foxtail, Giant plant response rating: scale 0 to 100 (0 no effect, 100 complete control); for Plant response rating, Foxtail, Giant: scale 0 to 100, 0 no effect, 100 complete control
# Method in brief: as §1
# ragweed = assay: Test A postemergence; format: in vivo, Ambrosia elatior; details: 0 to 100 scale, 0 no effect, 100 complete control
# Method in brief: (§3)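 Greenhouse pot test, loam/sand soil. Formulation: non-phytotoxic solvent mix plus surfactant. Pre: directed spray onto soil after sowing. Post: plants at 1–2 leaf, 2–10 cm. Rated visually vs untreated controls at ~10 d, 0 (no effect) to 100 (complete control).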
# kochia = assay: Test A preemergence; format: in vivo, Kochia scoparia
# Method in brief: as §3
# galium = assay: Test A postemergence; format: in vivo, Galium aparine; details: 0 to 100 scale, 0 no effect, 100 complete control
# Method in brief: as §3
smiles,measurement,setting,value
"FC(F)(F)c1cnn(-c2ccccc2Oc2ncc(Br)cn2)c1 [Compound 18, 5-bromo-2-[2-[4-(trifluoromethyl)-1H-pyrazol-1-yl]phenoxy]pyrimidine]",Nightshade plant response rating,nightshade; 16 g ai/ha,0
same,Nightshade plant response rating,nightshade; 31 g ai/ha,95
same,Nightshade plant response rating,nightshade; 62 g ai/ha,98
same,"Plant response rating, Nightshade",nightshade; 125 g ai/ha,100
same,"Plant response rating, Nightshade",nightshade; 250 g ai/ha,100
same,"Crabgrass, Large plant response rating",large (Lg) crabgrass; 16 g ai/ha,0
same,"Crabgrass, Large plant response rating",large (Lg) crabgrass; 31 g ai/ha,0
same,"Crabgrass, Large plant response rating",large (Lg) crabgrass; 62 g ai/ha,40
same,"Plant response rating, Crabgrass, Large",large (Lg) crabgrass; 125 g ai/ha,100
same,"Plant response rating, Crabgrass, Large",large (Lg) crabgrass; 250 g ai/ha,100
same,"Panicum, Fall plant response rating",fall panicum; 16 g ai/ha,0
same,"Panicum, Fall plant response rating",fall panicum; 31 g ai/ha,50
same,"Panicum, Fall plant response rating",fall panicum; 62 g ai/ha,70
same,"Plant response rating, Panicum, Fall",fall panicum; 125 g ai/ha,100
same,"Plant response rating, Panicum, Fall",fall panicum; 250 g ai/ha,100
same,"Plant response rating, Barnyardgrass",barnyardgrass [1]; 31 g ai/ha,0
same,"Plant response rating, Barnyardgrass",barnyardgrass [1]; 62 g ai/ha,0
same,"Plant response rating, Barnyardgrass",barnyardgrass [1]; 125 g ai/ha,10
same,"Plant response rating, Barnyardgrass",barnyardgrass [1]; 250 g ai/ha,20
same,Soybean plant response rating,soybean; 16 g ai/ha,0
same,Soybean plant response rating,soybean; 31 g ai/ha,0
same,Soybean plant response rating,soybean; 62 g ai/ha,60
same,"Plant response rating, Soybean",soybean; 125 g ai/ha,90
same,"Plant response rating, Soybean",soybean; 250 g ai/ha,90
same,Waterhemp plant response rating,waterhemp; 16 g ai/ha,100
same,Waterhemp plant response rating,waterhemp; 31 g ai/ha,100
same,Waterhemp plant response rating,waterhemp; 62 g ai/ha,100
same,"Plant response rating, Waterhemp",waterhemp; 125 g ai/ha,100
same,"Plant response rating, Waterhemp",waterhemp; 250 g ai/ha,100
same,Field Bindweed plant response rating,field bindweed; 16 g ai/ha,0
same,Field Bindweed plant response rating,field bindweed; 31 g ai/ha,0
same,Field Bindweed plant response rating,field bindweed; 62 g ai/ha,30
same,"Plant response rating, Field Bindweed",field bindweed; 125 g ai/ha,40
same,"Plant response rating, Field Bindweed",field bindweed; 250 g ai/ha,40
same,Velvetleaf plant response rating,velvetleaf; 16 g ai/ha,25
same,Velvetleaf plant response rating,velvetleaf; 31 g ai/ha,95
same,Velvetleaf plant response rating,velvetleaf; 62 g ai/ha,100
same,"Plant response rating, Velvetleaf",velvetleaf; 125 g ai/ha,100
same,"Plant response rating, Velvetleaf",velvetleaf; 250 g ai/ha,100
same,Corn plant response rating,corn; 16 g ai/ha,0
same,Corn plant response rating,corn; 31 g ai/ha,0
same,Corn plant response rating,corn; 62 g ai/ha,0
same,"Plant response rating, Corn",corn; 125 g ai/ha,0
same,"Plant response rating, Corn",corn; 250 g ai/ha,0
same,Barnyardgrass plant response rating,"barnyardgrass [2]; 16 g ai/ha, preemergence",0
same,Barnyardgrass plant response rating,"barnyardgrass [2]; 31 g ai/ha, preemergence",0
same,"Plant response rating, Barnyardgrass","barnyardgrass [2]; Preemergence, 62 g ai/ha",0
same,"Plant response rating, Barnyardgrass","barnyardgrass [2]; preemergence, 125 g ai/ha",5
same,"Plant response rating, Barnyardgrass","barnyardgrass [2]; preemergence, 250 g ai/ha",20
same,"Plant response rating, Sedge, Umbrella","sedge, umbrella; 31 g ai/ha",70
same,"Plant response rating, Sedge, Umbrella","sedge, umbrella; 62 g ai/ha",75
same,"Plant response rating, Sedge, Umbrella","sedge, umbrella; 125 g ai/ha",85
same,"Plant response rating, Sedge, Umbrella","sedge, umbrella; 250 g ai/ha",90
same,"Foxtail, Giant plant response rating",giant foxtail; 16 g ai/ha,0
same,"Foxtail, Giant plant response rating",giant foxtail; 31 g ai/ha,15
same,"Foxtail, Giant plant response rating",giant foxtail; 62 g ai/ha,65
same,"Plant response rating, Foxtail, Giant",giant foxtail; 125 g ai/ha,95
same,"Plant response rating, Foxtail, Giant",giant foxtail; 250 g ai/ha,98
FCc1cccc(Oc2ncc(Cl)cn2)c1-n1cc(Cl)cn1 [Compound 250],Nightshade plant response rating,nightshade; 31 g ai/ha,0
same,Nightshade plant response rating,nightshade; 62 g ai/ha,35
same,"Plant response rating, Nightshade",nightshade; 125 g ai/ha,98
same,"Crabgrass, Large plant response rating",large (Lg) crabgrass; 16 g ai/ha,0
same,"Crabgrass, Large plant response rating",large (Lg) crabgrass; 31 g ai/ha,0
same,"Crabgrass, Large plant response rating",large (Lg) crabgrass; 62 g ai/ha,0
same,"Plant response rating, Crabgrass, Large",large (Lg) crabgrass; 125 g ai/ha,100
same,"Panicum, Fall plant response rating",fall panicum; 31 g ai/ha,0
same,"Panicum, Fall plant response rating",fall panicum; 62 g ai/ha,0
same,"Plant response rating, Panicum, Fall",fall panicum; 125 g ai/ha,100
same,Soybean plant response rating,soybean; 31 g ai/ha,0
same,Soybean plant response rating,soybean; 62 g ai/ha,15
same,"Plant response rating, Soybean",soybean; 125 g ai/ha,65
same,Waterhemp plant response rating,waterhemp; 31 g ai/ha,0
same,Waterhemp plant response rating,waterhemp; 62 g ai/ha,0
same,"Plant response rating, Waterhemp",waterhemp; 125 g ai/ha,100
same,"Plant response rating, Ragweed",ragweed; 31 g ai/ha,50
same,"Plant response rating, Ragweed",ragweed; 125 g ai/ha,100
same,Field Bindweed plant response rating,field bindweed; 16 g ai/ha,0
same,Field Bindweed plant response rating,field bindweed; 31 g ai/ha,0
same,Field Bindweed plant response rating,field bindweed; 62 g ai/ha,0
same,"Plant response rating, Field Bindweed",field bindweed; 125 g ai/ha,0
same,Velvetleaf plant response rating,velvetleaf; 31 g ai/ha,75
same,Velvetleaf plant response rating,velvetleaf; 62 g ai/ha,75
same,"Plant response rating, Velvetleaf",velvetleaf; 125 g ai/ha,100
same,"Plant response rating, Kochia","kochia; 31 g ai/ha, 0 to 100 scale where 0 is no effect and 100 is complete control, visual, approximately 10 days",90
same,Kochia plant response rating (0 to 100 scale),kochia; 125 g ai/ha,0
same,Corn plant response rating,corn; 16 g ai/ha,0
same,Corn plant response rating,corn; 31 g ai/ha,0
same,Corn plant response rating,corn; 62 g ai/ha,0
same,"Plant response rating, Corn",corn; 125 g ai/ha,20
same,Barnyardgrass plant response rating,"barnyardgrass [2]; 16 g ai/ha, preemergence",0
same,Barnyardgrass plant response rating,"barnyardgrass [2]; 31 g ai/ha, preemergence",0
same,Barnyardgrass plant response rating,"barnyardgrass [2]; 62 g ai/ha, preemergence",0
same,"Plant response rating, Barnyardgrass","barnyardgrass [2]; preemergence, 125 g ai/ha",25
same,"Plant response rating, Galium",galium; 31 g ai/ha,10
same,"Plant response rating, Galium",galium; 125 g ai/ha,60
same,"Foxtail, Giant plant response rating",giant foxtail; 16 g ai/ha,0
same,"Foxtail, Giant plant response rating",giant foxtail; 31 g ai/ha,0
same,"Foxtail, Giant plant response rating",giant foxtail; 62 g ai/ha,15
same,"Plant response rating, Foxtail, Giant",giant foxtail; 125 g ai/ha,98

# — patent publication US9695155B2, “Herbicidal substituted pyrimidinyloxy benzene compounds” (E. I. DU PONT DE NEMOURS AND COMPANY, priority 2013, dated 2017)
